Assay results reported in patent publication US20250108119A1, “NOVEL STEROID PAYLOADS, STEROID LINKERS, ADCs CONTAINING AND USE THEREOF” (IMMUNEXT, INC., priority 2021, published 2025).

Key:
[1] = test system: FKBP5; assay: FKBP5 transcription in peritoneal resident macrophages (PRM) and spleen cells after in vivo treatment; set-up: species or system hVISTA mice; conditions: linker payloads as anti-VISTA conjugates
[2] = test system: human PBMC; assay: Cytokine production (IL-1β, IL-6) at 24 hr by human PBMC incubated with 1 ng/mL LPS; assay type: cell-based; conditions: anti-VISTA conjugates, serial dilutions with respect to total ADC concentration (20-0.003 μg/mL), equivalent or reduced DAR
Summary of the method: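 Human PBMC were stimulated with 1 ng/mL LPS together with serial dilutions of steroid payloads or glucocorticoid conjugates, spanning up to 8,000 nM down to 0.032 nM depending on the series. IL-1β and IL-6 were measured at 24 hr from technical duplicates, with 1-2 donors. Values above the ULOQ were extrapolated.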

[3] = test system: peritoneal resident macrophages (PRM); assay: In vivo treatment/ex vivo PRM activation, TNFα and IL-6 in supernatant; set-up: species or system hVISTA mice
[4] = linker/payloads as anti-VISTA conjugates

## C[C@]12C=CC(=O)C=C1CC[C@@H]1[C@@H]2[C@@H](O)C[C@@]2(C)[C@H]1C[C@H]1O[C@@H](c3ccc(CC4CC5(C4)CC(NC(=O)[C@H](CCC(=O)O)NC(=O)CNC(=O)CBr)C5)cc3)O[C@]12C(=O)CO (stereo partly drawn) [INX V, (S)-4-(2-(2-bromoacetamido)acetamido)-5-((6-(4-((6aR,6bS,7S,8aS,8bS,10R,11aR,12aS,12bS)-7-hydroxy-8b-(2-hydroxyacetyl)-6a,8a-dimethyl-4-oxo-2,4,6a,6b,7,8,8a,8b,11a,12,12a,12b-dodecahydro-1H-naphtho[2′,1′:4,5]indeno[1,2-d][1,3]dioxol-10-yl)benzyl)spiro[3.3]heptan-2-yl)amino)-5-oxopentanoic acid]
[1]
  FKBP5 induction when dosed 14 days early (conclusions): still display significant potency when dosed 14 days early in regard to FKBP5 induction
[2]
  potency in reducing IL-1β production: enhanced potency
[3]; Experiment 9: linker payloads as conjugates, 7 days post 0.2 mg/Kg of GC payload, supernatant 24h
  preventing ex vivo induction of TNFα and IL-6 in PRM: remarkable long-term potency in controlling cytokine responses
[3]; [4]
  controlling cytokine response in PRM when dosed 14 days early (conclusions): significant potency in controlling cytokine response in PRM when dosed 14 days early
  potency in PRM cytokine model when dosed 7 days early (conclusions): remarkably more potent than payloads INX P and INX R when dosed 7 days early
